Laboratory results published in US10287337B2 (priority 2015, dated 2019).
Read-outs that look alike come from different tables or passages of the source.

Columns and labels:
[1] = target: T1, human calcitonin CGRP1 (CGRP1) membrane (Homo sapiens, UniProt O60894+Q16602); format: binding; details: for binding affinity on CGRP receptors (in words): comparison between peptides
T1 construct: purchased Perkin Elmer (Waltham, Mass.)
Method: CGRP1 membrane was homogenized in the assay buffer (50 mM Tris-HCl pH 7.4, 5 mM MgCl2, 0.5% BSA, 0.05% Tween20). […] After 1 h of incubation, at room temperature, samples were filtered, using a Tomtec cell harvester, through glass fiber filters that had been presoaked in 0.05% polyethyleneimine and washed with the cold Tris buffer (50 mM Tris-HCl pH7.4). Filters were counted on a betaplate reader (Wallac).

[2] = test system: spared nerve injury-induced neuropathic pain in rats; test: Spared nerve injury (SNI)-induced neuropathic pain model, thermal and mechanical pain thresholds; format: in vivo, rat; details: 50 μL
Method: Of the three branches of the sciatic nerve the tibial and common peroneal nerves were cut and ligated leaving the sural nerve intact. Pre-surgery baselines (BL, 100%) of the thermal and mechanical pain thresholds of the ipsilateral hindpaws were measured using the Hargreaves thermal stimulator (6.0 A with a surface temperature of 30° C.; Hargreaves et al., 1988) and von Frey hair monofilaments (up-down method, Chaplan et al., 1994). […] All drug testing was conducted with this post-SNI period.
The rat recovered from anesthesia within a few minutes and the thermal and mechanical pain thresholds were determined at 0.5, 1, 2, 3, 4, 5 and 6 hour after the treatment using the methods described above.
Using the same test protocol in a different cohort of SNI rats, novel AFA-peptide 3 (0.1, 1 and 3 μM, each 50 μL) or the vehicle (50 μL) was injected into the ipsilateral hindpaws under a brief and light anesthesia condition (with 2.5% isoflurane). The thermal and mechanical pain thresholds were determined at 0.5, 1, 2, 3, 4, 5 and 6 hour after the treatment. […]

[3] = test system: tibial neuroma-induced neuropathic pain in rats; test: Tibial neuroma transposition model, neuroma tenderness; format: in vivo, rat; details: injected into skin over neuroma site
Text: Sprague Dawley rats (male, approximately 400 g) were undergone surgery as described by Dorsi et al., briefly, a 2-3 cm incision was made through the skin and subcutaneous fascia of the ventral surface of the pelvic leg extending from the tarsometatarsal joint to approximately 1 cm distal to the level of the stifle the nerve was isolated and the posterior tibial branch was ligated and then sharply transected approximately 2 mm distal to the ligature, as illustrated in FIG. 8A. After the medial skin incision closure, the rat was transferred to a recovery cage devoid of bedding and placed halfway upon a recirculating hot water pad until standing; once recovered, the rat was returned to its home cage and monitored daily for signs of pain and wound dehiscence.
The rats were allowed to recover from the surgical procedure before beginning behavioral testing to assess neuroma development. On post-operative days 7 and 14, rats were assessed for mechanical pain using the “up-down” method of Von Frey mechanical testing and direct mechanical stimulation of the neuroma (referred to as neuroma tenderness testing). Neuroma tenderness was tested by applying the 15 g filament to the neuroma site up to five times in a series with a three second break between applications; the series was completed and scored as a positive as soon as a positive withdrawal response is seen. […]

[4] = test system: UVB radiation-induced inflammatory pain in rat cheek; format: in vivo; details: topical application 10 μM, 100 μL
Text: Ultraviolet B (UVB) radiation causes cutaneous inflammation in humans and animals. One important clinical consequence of UVB-induced inflammation is causing hyperalgesia. Changes in thermal sensitivities in the area of primary UVB irradiation are well documented both in humans and in the animal models (Zhang et al., 2009). […] This model provides an experimental model of post radiation pain and can mimic one type of burn pain. To determine the magnitude of anti-inflammatory pain effects for a given drug transdermally delivered by way of microneedle delivery, the depilated rat's cheeks were exposed to an inflammatory dosage of Ultraviolet B radiation (Zhang et al., 2009).
With the skin of a rat's cheek was stretched, the circular (8 mm in diameter) fiberglass applicator of the UV Curing Device (Dymax Bluewave 200) was applied to the center of the rat's cheek. To produce an appropriate inflammation, a total dose of 1200 mJ/cm^2 UVB was administered to one rat cheek for 25 seconds. The same procedure was performed on the rat's contralateral cheek. Upon completion of UVB irradiation, all rats were returned to their home cages and were assessed for thermal pain between 24-48 hours later. […] The rats were lightly anesthetized with urethane (800 mg/kg, IP) and heat-induced withdrawal latencies of the cheeks (an indicator of C fiber stimulation responses) were measured. […] A sham control group (n=6) were only completely depilated and cleansed with ethanol wipes but without UVB challenge.
After removing patches, cheek withdrawal latencies induced by continuous and noxious heat were assessed at different time points from the end of the 20 minute treatment period up to 3 hours post treatment.
The patches were applied on the rat cheek for 20 minutes. After removing the patches, cheek withdrawal latencies induced by continuous and noxious heat were assessed at different time points up to 3 hours as described above.
(§1) After removing the patches, cheek withdrawal latencies induced by continuous and noxious heat were assessed at different time points up to 3 hours.
Accordingly, anti-inflammatory effects were examined 48 hours post-UVB and after the application of the patch. Twelve rats were subjected to UVB radiation (1200 mJ/cm^2). […] The patch was placed over the inflamed area for a period of 20 minutes. […] Sham control group rats (n=6) were completely depilated and cleansed with ethanol wipes but without any other treatment. The rats were returned to their home cages, and assessed for thermal pain responses 48 hours later. As usual, cheek withdrawal latencies in response to continuous and noxious heat were recorded over a 3-hour time period (hours 49-51 post-UVB).
as §1
After removing the patches, cheek withdrawal latencies induced by continuous and noxious heat were assessed at different time points from 20 minutes post administration up to 3 hours.
Because UVB-irradiation may increase skin permeability, a topical formulation, but not limited to the sample shown here, was made.

[5] = daily intradermal injection 1 μM, 10 consecutive days

T1 sequence (O60894 27-148): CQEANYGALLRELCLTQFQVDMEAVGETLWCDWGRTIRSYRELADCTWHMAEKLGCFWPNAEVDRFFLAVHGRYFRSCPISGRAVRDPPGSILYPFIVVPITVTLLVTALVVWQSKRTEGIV
T1 sequence (Q16602 23-461): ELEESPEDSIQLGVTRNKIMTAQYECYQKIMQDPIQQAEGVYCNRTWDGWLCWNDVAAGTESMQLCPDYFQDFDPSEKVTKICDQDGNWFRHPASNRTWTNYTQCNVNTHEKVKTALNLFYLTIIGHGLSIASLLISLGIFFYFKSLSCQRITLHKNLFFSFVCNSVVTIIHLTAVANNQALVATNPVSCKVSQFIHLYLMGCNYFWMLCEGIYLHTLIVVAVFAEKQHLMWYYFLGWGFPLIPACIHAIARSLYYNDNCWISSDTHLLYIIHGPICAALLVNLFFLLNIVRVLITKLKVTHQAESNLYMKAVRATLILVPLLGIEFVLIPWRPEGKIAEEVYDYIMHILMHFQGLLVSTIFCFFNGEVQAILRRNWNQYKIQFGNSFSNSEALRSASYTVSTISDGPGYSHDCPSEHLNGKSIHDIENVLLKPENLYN

H-NFVPTNVGPFAF-NH2 [AFA-peptide 3, NH2-N-F-V-P-T-N-V-G-P-F-A-F-CONH2]
Hill slope ([1]; 0.24 nM [125I]-CGRP, Mean±SD): 1.20 ± 0.02 | binding affinity on CGRP receptors (in words) [1]: higher affinities than conventional CGRP 27-37 and CGRP 8-37 | binding affinity on CGRP receptors (in words) ([1]; listed as Peptide-3): most potent in binding assay | analgesic effect on repeated dosing (in words) [2, 5]: consistent analgesic effects | tolerance on repeated dosing (in words) [2, 5]: did not cause tolerance | thermal and mechanical pain thresholds (in words) ([2]; local intradermal injection into SNI ipsilateral hindpaw, 0.5-6 hour after treatment, vs vehicle): produced analgesic effects, particularly on thermal pain in a dose-related manner | duration of analgesic effect [3]: 3 to 4 h | neuroma tenderness (in words) ([3]; 0.3 and 1 μM, 50 μL): reduced neuroma tenderness in dose-related manner | duration of action [4]: 2 h | C-fiber-mediated thermal pain thresholds vs vehicle (in words) ([4]; 2% propylene glycol, UVB-irradiated cheek): significant and substantial increase
